Data taken from PubChem BioAssay (NCI).
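Briefly, cells in 96-well plates were exposed to five compound concentrations for 48 h, and endpoints were estimated by linear interpolation. GI50 is the concentration that inhibits growth by half. The concentration for full growth arrest is given as TGI.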

What was measured:
Assay in all cases: DTP human tumour cell line panel, 48 h
NCI-H226 lung = system: NCI-H226 lung
HCC-2998 colon = system: HCC-2998 colon
K-562 leukemia = system: K-562 leukemia
SK-MEL-28 melanoma = system: SK-MEL-28 melanoma
IGROV1 ovarian = system: IGROV1 ovarian
CAKI-1 renal = system: CAKI-1 renal
HOP-62 NSCLC = system: HOP-62 NSCLC
OVCAR-4 ovarian = system: OVCAR-4 ovarian
HL-60(TB) leukemia = system: HL-60(TB) leukemia
MDA-MB-231 breast = system: MDA-MB-231 breast
UO-31 renal = system: UO-31 renal
NCI/ADR-RES ovarian = system: NCI/ADR-RES ovarian
OVCAR-8 ovarian = system: OVCAR-8 ovarian
ACHN renal = system: ACHN renal
UACC-257 melanoma = system: UACC-257 melanoma
NCI-H23 lung = system: NCI-H23 lung
MOLT-4 leukemia = system: MOLT-4 leukemia
TK-10 renal = system: TK-10 renal
SK-MEL-5 melanoma = system: SK-MEL-5 melanoma
SN12C renal = system: SN12C renal
HOP-92 NSCLC = system: HOP-92 NSCLC
SNB-19 CNS = system: SNB-19 CNS
RPMI-8226 leukemia = system: RPMI-8226 leukemia
CCRF-CEM leukemia = system: CCRF-CEM leukemia
SNB-75 CNS = system: SNB-75 CNS
OVCAR-3 ovarian = system: OVCAR-3 ovarian
M14 melanoma = system: M14 melanoma
A498 renal = system: A498 renal
U251 CNS = system: U251 CNS
SK-MEL-2 melanoma = system: SK-MEL-2 melanoma
RXF 393 renal = system: RXF 393 renal
MALME-3M melanoma = system: MALME-3M melanoma
MDA-MB-435 = system: MDA-MB-435
T-47D breast = system: T-47D breast
SF-539 CNS = system: SF-539 CNS
DU-145 prostate = system: DU-145 prostate
NCI-H522 lung = system: NCI-H522 lung
LOX IMVI melanoma = system: LOX IMVI melanoma
SF-268 CNS = system: SF-268 CNS
HS 578T breast = system: HS 578T breast
BT-549 breast = system: BT-549 breast
SF-295 CNS = system: SF-295 CNS
PC-3 prostate = system: PC-3 prostate
MCF7 breast = system: MCF7 breast
HCT-15 colon = system: HCT-15 colon
NCI-H460 lung = system: NCI-H460 lung
HT29 colon = system: HT29 colon
OVCAR-5 ovarian = system: OVCAR-5 ovarian
KM12 colon = system: KM12 colon
COLO 205 colon = system: COLO 205 colon
SR leukemia = system: SR leukemia
EKVX NSCLC = system: EKVX NSCLC
A549 NSCLC = system: A549 NSCLC
SW-620 colon = system: SW-620 colon
SK-OV-3 ovarian = system: SK-OV-3 ovarian
786-0 renal = system: 786-0 renal
UACC-62 melanoma = system: UACC-62 melanoma
HCT-116 colon = system: HCT-116 colon

CNC(=O)c1ncccc1Nc1nc(Nc2cc3c(cc2OC)CCCN3C(=O)CN(C)C)nc2[nH]ccc12
GI50 (NCI-H226 lung): 1910 nM
TGI (NCI-H226 lung): 5.78 µM
GI50 (HCC-2998 colon): 518 nM
TGI (HCC-2998 colon): 4.12 µM
GI50 (K-562 leukemia): 1880 nM
TGI (K-562 leukemia): 7.55 µM
GI50 (SK-MEL-28 melanoma): 3.18 µM
TGI (SK-MEL-28 melanoma): 6.77 µM
GI50 (IGROV1 ovarian): 3.52 µM
TGI (IGROV1 ovarian): 8.66 µM
GI50 (CAKI-1 renal): 2740 nM
TGI (CAKI-1 renal): 7.22 µM
GI50 (HOP-62 NSCLC): 1170 nM
TGI (HOP-62 NSCLC): 4.73 µM
GI50 (OVCAR-4 ovarian): 2980 nM
TGI (OVCAR-4 ovarian): 6.67 µM
GI50 (HL-60(TB) leukemia): 92.1 nM
TGI (HL-60(TB) leukemia): 803 nM
GI50 (MDA-MB-231 breast): 1580 nM
TGI (MDA-MB-231 breast): 5.3 µM
GI50 (UO-31 renal): 2710 nM
TGI (UO-31 renal): 6.45 µM
GI50 (NCI/ADR-RES ovarian): 724 nM
TGI (NCI/ADR-RES ovarian): 2740 nM
GI50 (OVCAR-8 ovarian): 1250 nM
TGI (OVCAR-8 ovarian): 5.1 µM
GI50 (ACHN renal): 3.23 µM
TGI (ACHN renal): 6.72 µM
GI50 (UACC-257 melanoma): 395 nM
TGI (UACC-257 melanoma): 4.71 µM
GI50 (NCI-H23 lung): 476 nM
TGI (NCI-H23 lung): 3.07 µM
GI50 (MOLT-4 leukemia): 1050 nM
TGI (MOLT-4 leukemia): 5.76 µM
GI50 (TK-10 renal): 2220 nM
TGI (TK-10 renal): 6.7 µM
GI50 (SK-MEL-5 melanoma): 618 nM
TGI (SK-MEL-5 melanoma): 3.37 µM
GI50 (SN12C renal): 3.36 µM
TGI (SN12C renal): 7.37 µM
GI50 (HOP-92 NSCLC): 49 nM
TGI (HOP-92 NSCLC): 1980 nM
GI50 (SNB-19 CNS): 3.49 µM
TGI (SNB-19 CNS): 11.2 µM
GI50 (RPMI-8226 leukemia): 842 nM
TGI (RPMI-8226 leukemia): 3.89 µM
GI50 (CCRF-CEM leukemia): 568 nM
TGI (CCRF-CEM leukemia): 2960 nM
GI50 (SNB-75 CNS): 3.03 µM
TGI (SNB-75 CNS): 6.43 µM
GI50 (OVCAR-3 ovarian): 986 nM
TGI (OVCAR-3 ovarian): 3.39 µM
GI50 (M14 melanoma): 1870 nM
TGI (M14 melanoma): 5.78 µM
GI50 (A498 renal): 1180 nM
TGI (A498 renal): 5.46 µM
GI50 (U251 CNS): 2020 nM
TGI (U251 CNS): 5.38 µM
GI50 (SK-MEL-2 melanoma): 877 nM
TGI (SK-MEL-2 melanoma): 3.89 µM
GI50 (RXF 393 renal): 974 nM
TGI (RXF 393 renal): 3.8 µM
GI50 (MALME-3M melanoma): 3.65 µM
TGI (MALME-3M melanoma): 7.84 µM
GI50 (MDA-MB-435): 244 nM
TGI (MDA-MB-435): 1780 nM
GI50 (T-47D breast): 3.37 µM
TGI (T-47D breast): 9.19 µM
GI50 (SF-539 CNS): 1570 nM
TGI (SF-539 CNS): 5.13 µM
GI50 (DU-145 prostate): 753 nM
TGI (DU-145 prostate): 3.02 µM
GI50 (NCI-H522 lung): 638 nM
TGI (NCI-H522 lung): 2840 nM
GI50 (LOX IMVI melanoma): 1260 nM
TGI (LOX IMVI melanoma): 4.77 µM
GI50 (SF-268 CNS): 1460 nM
TGI (SF-268 CNS): 5.4 µM
GI50 (HS 578T breast): 1210 nM
TGI (HS 578T breast): 5.69 µM
GI50 (BT-549 breast): 2700 nM
TGI (BT-549 breast): 6.04 µM
GI50 (SF-295 CNS): 1820 nM
TGI (SF-295 CNS): 5.94 µM
GI50 (PC-3 prostate): 1500 nM
TGI (PC-3 prostate): 8.03 µM
GI50 (MCF7 breast): 73 nM
TGI (MCF7 breast): 2730 nM
GI50 (HCT-15 colon): 1840 nM
TGI (HCT-15 colon): 9.35 µM
GI50 (NCI-H460 lung): 613 nM
TGI (NCI-H460 lung): 3.77 µM
GI50 (HT29 colon): 49.1 nM
TGI (HT29 colon): 1250 nM
GI50 (OVCAR-5 ovarian): 325 nM
TGI (OVCAR-5 ovarian): 4.18 µM
GI50 (KM12 colon): 728 nM
TGI (KM12 colon): 3.04 µM
GI50 (COLO 205 colon): 127 nM
TGI (COLO 205 colon): 1180 nM
GI50 (SR leukemia): 104 nM
TGI (SR leukemia): 2960 nM
GI50 (EKVX NSCLC): 1550 nM
TGI (EKVX NSCLC): 6.52 µM
GI50 (A549 NSCLC): 845 nM
TGI (A549 NSCLC): 4.39 µM
GI50 (SW-620 colon): 224 nM
TGI (SW-620 colon): 3.22 µM
GI50 (SK-OV-3 ovarian): 1670 nM
TGI (SK-OV-3 ovarian): 5.86 µM
GI50 (786-0 renal): 3.23 µM
TGI (786-0 renal): 7.02 µM
GI50 (UACC-62 melanoma): 3.07 µM
TGI (UACC-62 melanoma): 6.45 µM
GI50 (HCT-116 colon): 1110 nM
TGI (HCT-116 colon): 4.89 µM
